{"source": "patent US5670619A", "about": "“Bradykinin-antagonists for the treatment of acute pancreatitis” (Hoechst Aktiengesellschaft, priority 1991, dated 1997)", "type_in_all_cases": "in vivo", "key": {"[1]": {"system": "caerulein-induced pancreatic oedema", "experiment": "Pancreatic oedema (water and Evans blue content of pancreas) in caerulein-induced pancreatitis in rats", "conditions": "rat; for Pancreatic oedema: Evans blue / Pancreatic oedema: water: A s.c. 100 nmol/kg, mean ± SEM, n = 10", "source_text": "General methods: To induce experimental pancreatitis in animals, a number of procedures have been used including ligation of the pancreatic duct, injection of bile salts into the pancreatic duct, infusion of oleic acid, or infusion of the amphibian cholecystokinin analogue, caerulein. The latter procedure produces a hyperstimulation of the exocrine function of the pancreas and leads to morphological changes that share many features also seen in human acute pancreatitis (Willemer S., Bialek R., Kohler H. Adler G.; \"Caerulein-induced acute pancreatitis in rats: changes in glycoprotein-composition of subcellular membrane systems in acinar cells;\" Histochemistry 1990; 95; 87-96). Caerulein-induced pancreatitis in rats was used for the following experiments.\n(§1) Method: Female Sprague-Dawley rats (260±30 g) were anaesthetized with pentobarbitone sodium (40 mg/kg, i.p.) and phenobarbitone sodium (160 mg/kg, i,p.). […] 10 min later, the animals were given a s.c. injection of a peptide of the formula I (100 nmol/kg) or of a corresponding volume (0.5 ml/kg) of a 154 mM sodium chloride solution. The systemic arterial blood pressure was monitored in a carotid artery using a Statham pressure transducer. A jugular vein was cannulated to allow the infusion of either caerulein (4 nmol/kg/h) or of physiological saline (0.034 ml/min). The infusion was started 30 min after the s.c. injection of a peptide of the formula I or saline, and lasted for 2 h. At the end of the experiment the animals were killed by decapitation; the blood was collected for the determination of serum amylase and lipase.\nMethod: Quantification of the pancreatic oedema was achieved by measuring the dry weight of pancreas and the accumulation of plasma proteins in pancreas. At the end of the infusions (see blood pressure experiments), the blood was collected for measuring enzymes in serum. The pancreas was excised and weighed. After drying the tissue, the difference between wet and dry weight, in relation to dry weight, was used as a measure for the water content of the tissue. 5 mg/kg of Evans blue, which quantitatively binds to serum albumin (Rawson R. A.: \"The binding of T-1824 and structurally related diazo dyes by plasma proteins\", Amer. J. Physiol. 1943, 138, 708-717) was injected i.v. immediately before the start of the i.v. infusion of caerulein or physiological saline. Thereafter the pancreatic tissue was used to measure Evans blue concentration photometrically (Gamse R., Holzer P., Lembeck F.: \"Decrease of substance P in primary afferent neurones and impairment of neurogenic plasma extravasation by capsaicin\", Br. J. Pharmacol. 1980, 68, 207-213; Saria A., Lundberg J. M.: \"Evans blue fluorescence: quantitative and morphological evaluation of vascular permeability in animal tissues\", J. Neurosci. Meth. 1983, 8, 41-49). Control animals were treated with corresponding volumes of saline instead of a peptide of the formula I or caerulein. Plasma extravasation was quantified as content of water and Evans blue in the pancreas."}, "[2]": {"system": "bradykinin (injected, or split off from kininogen by kallikrein)", "experiment": "Inhibition of the fall in blood pressure evoked by bradykinin and kallikrein in anaesthetized rabbits", "conditions": "anaesthetized rabbit, peptide 3 nmol/kg i.v.", "method": "Methods: Rabbits of either sex (3.5-5.0 kg) were anaesthetized with pentobarbitone sodium (35 mg/kg i.v.). Arterial blood pressure was monitored in a carotid artery using a Statham pressure transducer. I.v. injections of bradykinin (1 to 10 nmol/kg) or kallikrein (1 to 10 U/kg) were made into a jugular vein at intervals of 10 min. A peptide of the formula I (3 nmol/kg) was given i.v. and the injections of bradykinin or kallikrein were then repeated."}, "[3]": {"system": "pancreatic enzymes in serum", "experiment": "Serum amylase and lipase activities in caerulein-induced pancreatitis in rats", "conditions": "rat, A s.c., no CRL i.v., n = 6", "method": "as §1\nMethods: Serum amylase was determined using a kinetic colour test with 2-chlor-4-nitrophenyl-D-maltoheptoside (Amylase test kit Roche, F.R.G.). Serum lipase was measured by the reduction of the turbidity due to cleavage of triolein to monoglyceride and oleic acid (Monotest Lipase, Boehringer Mannheim, F.R.G.). The detection limits for amylase and lipase were 11 U/I and 16 U/l, respectively. Control animals were treated with corresponding volumes of saline instead of a peptide of the formula I."}, "[4]": {"system": "caerulein-induced increase of water and Evans blue content in the pancreas", "experiment": "Comparison of peptide A with the Berg et al. antagonist, given after onset of caerulein infusion in rats", "conditions": "rat; given 10 minutes after the outset of the caerulein infusion; Berg antagonist in a dose 10 times higher than peptide A", "method": "Additionally D-Arg^0 -HYP^3 -Thi^5.8 D-Phe^7 -BK disclosed by Berg et al. (see page 1) has been tested in comparision with the peptide A. Both antagonists were given in two groups of rats under identical conditions 10 minutes after the outset of the infusion of caerulein."}}}
{"smiles": "N=C(N)NCCC[C@@H](N)C(=O)N[C@@H](CCCNC(=N)N)C(=O)N1CCC[C@H]1C(=O)N1C[C@H](O)C[C@H]1C(=O)NCC(=O)N[C@@H](Cc1cccs1)C(=O)N[C@@H](CO)C(=O)N1Cc2ccccc2C[C@@H]1C(=O)N1[C@H](C(=O)N[C@@H](CCCNC(=N)N)C(=O)O)C[C@@H]2CCCC[C@@H]21", "note": "[peptide A, H-D-Arg-Arg-Pro-Hyp-Gly-Thi-Ser-D-Tic-Oic-Arg-OH]", "values": [{"measurement": "Pancreatic oedema: Evans blue", "setting": "[1]; CRL i.v.", "value": "18.21 ± 4.24", "unit": "μg/g dry wgt"}, {"measurement": "Pancreatic oedema: water", "setting": "[1]; CRL i.v.", "value": "3.11 ± 0.33", "unit": "g/g dry wgt"}, {"measurement": "Pancreatic oedema: Evans blue", "setting": "[1]; no CRL i.v.", "value": "20.31 ± 5.80", "unit": "μg/g dry wgt"}, {"measurement": "Pancreatic oedema: water", "setting": "[1]; no CRL i.v.", "value": "2.62 ± 0.23", "unit": "g/g dry wgt"}, {"measurement": "CRL induced pancreatic oedema", "setting": "[1]; result in words", "value": "completely inhibited"}, {"measurement": "fall in blood pressure evoked by bradykinin", "setting": "[2]; bradykinin 1 to 10 nmol/kg i.v.", "value": "completely blocked"}, {"measurement": "fall in blood pressure evoked by kallikrein", "setting": "[2]; kallikrein 1 to 10 U/kg i.v.", "value": "completely blocked"}, {"measurement": "Serum Amylase activity", "setting": "[3]; mean ± SEM", "value": "3.19 ± 0.21", "unit": "U/ml"}, {"measurement": "Serum Lipase activity", "setting": "[3]; nn = not detectable", "value": "nn"}, {"measurement": "increase of Evans blue content in the pancreas", "setting": "[4]", "value": "completely inhibited"}, {"measurement": "increase of water content in the pancreas", "setting": "[4]", "value": "completely inhibited"}]}
